Entries after “also recorded” stand apart in the source; their conditions may differ. Where a name gives a salt, the structure may show the parent alone.
What was measured:
[1] = system: patients with active Crohn's disease; test: Open-labeled pilot trial of LDN in active Crohn's disease: CDAI score, response, remission, fistulas; assay type: in vivo, human
Description: In the following detailed example, low dose naltrexone, an opioid antagonist, is shown to be a safe and effective treatment for Crohn's disease. In a human clinical experiment, eligible patients were both male and female, at least eighteen years of age, and with the confirmed diagnosis of Crohn's disease by either endocopic or radiographic procedures. Patients had moderate to severely active disease as defined by a Crohn's Disease Activity Index (CDAI score) of >220 and <450. See, Best, et al., “Development of a Crohn's disease activity index. National Cooperative Crohn's Disease Study,” Gastroenterology 70, 439-44 (1976). Patients taking stable doses of aminosalicylates, immunomodulators, corticosteroids, or antibiotics were permitted to enter the study, and they were continued at the same dosage throughout the trial. Women of childbearing age were permitted to enroll and, if not surgically sterile, were required to use adequate contraception (defined as oral or depot contraceptive, IUD, or barrier plus spermicide) for the duration of the study. These women were required to continue adequate contraception for three months after the completion of the study. Exclusion criteria included women who were pregnant or breastfeeding, subjects with an ileostomy, colostomy, ileorectal anastomosis, or short bowel syndrome from surgery, and patients with abnormal liver function tests. Subjects taking tacrolimus, cyclosporine, mycophenolate, or infliximab within eight weeks of enrollment were excluded.
(§1) Eligibility was assessed by telephone, and potential candidates were scheduled for a screening visit. At the screening visit, patients were subjected to a history and physical examination and laboratory testing (chemistry panel, complete blood count [“CBC”], urinalysis, and erythrocyte sedimentation rate [“ESR”]). Patients were dispensed a seven-day diary to record symptoms of frequency of diarrhea, abdominal pain, and general well-being. Within fourteen days, patients returned for assessment and calculation of the CDAI score. Qualifying subjects were dispensed medication and given a new diary in order to calculate the subsequent month's CDAI score at the conclusion of this visit (baseline). Patients returned after two weeks for an interim visit to evaluate side effects and perform a CBC. Follow-up visits were scheduled for weeks 4, 8, 12, and 16.
Quality assurance of packaging and purity were confirmed an analytical research laboratory. Patients were treated with LDN orally each evening for three months. A monthly supply of medication was dispensed to patients. On the first visit, an additional ten-day supply of LDN was provided in the event of an appointment delay. Subjects were required to bring the vials to each appointment for counting and drug accountability; extra capsules were returned on the day of the visit and another month's supply dispensed. […]
(§2) An intent-to-treat analysis was performed in which the available data from all evaluable patients were included in the statistical analysis. The parameters of measurement (CDAI scores, laboratory values, and quality of life surveys) were analyzed by a biostatistician comparing baseline values to those obtained monthly and four weeks post-therapy. A longitudinal data analysis based upon the linear mixed-effects model was applied using PROC MIXED program (available from SAS Institute Inc., Cary, N.C.). The Bonferroni statistical method was used to adjust significance where analysis including multiple comparisons to the baseline were made. P-values for binary outcomes response and remission were calculated using the exact test for binomial proportions.

human subjects = test: Double-blinded placebo-controlled Phase II clinical trial, adverse events; assay type: in vivo; conditions: as of the date of application
[2] = system: patients with active Crohn's disease; test: Open-labeled pilot trial of LDN: quality of life surveys (IBDQ, SF-36 Health Survey); assay type: in vivo, human
Experimental: as §1
Quality assurance of packaging and purity were confirmed an analytical research laboratory. Patients were treated with LDN orally each evening for three months. A monthly supply of medication was dispensed to patients. On the first visit, an additional ten-day supply of LDN was provided in the event of an appointment delay. Subjects were required to bring the vials to each appointment for counting and drug accountability; extra capsules were returned on the day of the visit and another month's supply dispensed.
To assess quality of life, patients completed two standardized quality of life surveys, the Inflammatory Bowel Disease Questionnaire (“IBDQ”) and SF-36 Health Survey. See, Irvine, et al., “Quality of life: a valid and reliable measure of therapeutic efficacy in the treatment of inflammatory bowel disease. Canadian Crohn's Relapse Prevention Trial Study Group,” Gastroenterology 106(2), 287-96 (1994); Brazier, et al., “Validating the SF-36 health survey questionnaire: new outcome measure for primary care,” BMJ305(6846), 160-04 (1992).
as §2

[3] = system: patients with active Crohn's disease; test: Open-labeled pilot trial of LDN: safety and toxicity (adverse events, body weight); assay type: in vivo, human
Experimental: as §1
Nonhematologic and hematologic toxicity were determined by the WHO criteria. See, Oken, et al., “Toxicity and response criteria of the Eastern Cooperative Oncology Group,” Am. J. Clin. Oncol. 5(6), 649-55 (1982).

[4] = one month (week 4) of LDN 4.5 mg/day
[5] = week 16, four weeks after discontinuation of LDN

With O=C1CC[C@@]2(O)[C@H]3Cc4ccc(O)c5c4[C@@]2(CCN3CC2CC2)[C@H]1O5 [LDN, Naltrexone hydrochloride] the “Fistulas in the two subjects with fistulas” value ([1]; LDN therapy, not previously responded to infliximab, hydrochloride) was “closure of the fistulas”, the “Enrolled patients who achieved remission (fraction in words)” value ([1]; at some point during LDN treatment) was “Two-thirds” and the “Patients who achieved a remission” value ([1]; at some point during the 16-week trial) was 67%. The “CDAI scores versus baseline (in words)” value ([1]; four weeks after completing therapy, hydrochloride) was “remained lower than baseline; also recorded: continued improvement in CDAI scores”, the “CDAI scores with LDN versus baseline (in words)” value ([1]; on therapy, 4.5 mg/day, baseline mean CDAI 356±27) was “decreased significantly” and the “Patients in remission (CDAI score of 150 points or less)” value (“Patients in remission” below) [1, 4] was 29%. For the same compound, the “Patients with response to therapy (decrease in CDAI score by 70 points)” value (shortened to “Patients … (decrease in CDAI score by 70 points)”) [1, 4] was 76%, the “Mean CDAI score, decrease from baseline” value ([1]; week 4 of LDN 4.5 mg/day by mouth each evening, 17 patients) was 41% and the “Patients in remission” value ([1]; week 8 of LDN) was 53%. For the same compound, the “Patients … (decrease in CDAI score by 70 points)” value ([1]; week 8 of LDN) was 88%, the “Mean CDAI score, decrease from baseline” value ([1]; week 8 of LDN 4.5 mg/day) was 55% and the “Patients in remission” value ([1]; week 12 of LDN) was 47%. The “Patients … (decrease in CDAI score by 70 points)” value ([1]; week 12 of LDN) was 88%, the “Mean CDAI score, decrease from baseline” value ([1]; week 12 of LDN 4.5 mg/day) was 49% and the “Mean CDAI score, less than baseline” value [1, 5] was 45%. The “Patients in remission” value [1, 5] was 33%, the “Patients … (decrease in CDAI score by 70 points)” value [1, 5] was 73% and the Serious adverse events (human subjects) was “has not revealed any serious adverse events”. The “SF-36 physical function, greater than baseline” value ([2]; 4 and 8 weeks of LDN) was 23%, the “Quality of life by both surveys (IBDQ and SF-36) compared to baseline” value ([2]; on LDN therapy) was “significant improvement; also recorded: improved the quality of life” and the “SF-36 health perception, greater than baseline” value ([2]; week 8 of LDN) was 33%. The “SF-36 health perception, greater than baseline” value ([2]; week 12 of LDN) was 49%, the “SF-36 social function, greater than baseline” value ([2]; weeks 4, 8 and 12, only statistically different at week 8) was 70% and the “SF-36 bodily pain, improvement” value ([2]; weeks 4, 8 and 12 of LDN) was 61-65%. For the same compound, the “SF-36 emotional health versus baseline” value ([2]; weeks 4, 8 and 12 of LDN) was “comparable to baseline values”, the “SF-36 physical role scores, improvement” value ([2]; weeks 4, 8 and 12 of LDN) was 5- to 8 fold and the “SF-36 role-emotional versus baseline” value ([2]; weeks 4, 8 and 12 of LDN) was “comparable to baseline values”. The “IBDQ survey, quality of life compared to baseline” value ([2]; weeks 4, 8 and 12 on LDN and one month after completion) was “significant improvement in quality of life”, the “SF-36 energy scores, greater than at initiation of therapy” value ([2]; weeks 8 and 12 of LDN) was “at least 2 fold” and the “Sleep disturbances, number of patients” value ([3]; 17 patients enrolled) was 7 patients. The “Subjects who changed timing of LDN from evening to morning due to insomnia” value ([3]; 17 patients enrolled) was “Five”, the “Unusual dreams, number of patients reporting” value ([3]; 17 patients enrolled) was “one” and the “Dose reduction for sleep disturbances” value ([3]; in vivo) was “In no instance was a dose reduction necessary”. The Safety profile ([3]; pilot study, 4.5 mg daily) was “infrequent and minor side effects and no known suppression of immunity or increased risk of secondary infections” and the Body weight ([3]; screening visit through week 16) was “no significant change in body weight”.
